We go through one molecule from patent US20210386704A1, “MDMA RESPONSE PREDICTION” (Universitätsspital Basel, priority 2020, published 2021).

The conditions of data set [1]: poor vs extensive/normal metabolizers; de la Torre et al., 2005; Schmid et al., 2016; cited from earlier work.
The subject of data set [2] is healthy human subjects. The experiment in a line: Pooled analysis: autonomic response to MDMA (blood pressure, heart rate, body temperature; Emax).
Data set [3] concerns healthy human subjects. The data set can be described thus: Pooled analysis: subjective response to MDMA (VAS, AMRS, 5D-ASC).
The nature of data set [4]: Pooled analysis of ten placebo-controlled crossover studies: MDMA plasma concentration (AUC 0-6 h).

Regarding `CNC(C)Cc1ccc2c(c1)OCO2` (racemic) [MDMA, (±)3,4-methylenedioxymethamphetamine], the “MDMA blood plasma concentrations in CYP2D6 poor metabolizers” value in data set [1] is on record as “higher MDMA blood plasma concentrations than extensive/normal metabolizers”. Further, in data set [2] (LASSO model (FIG. 3)), the “Heart rate increase, relation to older age” value is “lower heart rate increase” and the “Temperature increase, relation to older age” value is given as “lower temperature increase”. For the same molecule, the “Heart rate, correlation with age” value in data set [2] (adjusted for dose per body weight (FIG. 2), p<0.05) is “inverse correlation between heart rate and age remained significant”. In data set [3] (LASSO model (FIG. 3)), the “Bad drug effect, relation to older age” value was “higher bad drug effect” and the “Strongest predictor of outcome effects after MDMA (plasma AUC, MAP increase, AMRS, VAS, 5D-ASC ratings)” value is reported as “dose per body weight is the strongest predictor”. In addition, in data set [3] (adjusted for dose and body weight (FIG. 2)), the “Sex as predictor of response” value is reported as “lost its predictor value”. In data set [3] (dose-adjusted (FIG. 2)), the “Effect of well-being (AMRS) before MDMA on response” value is “no significant effect as predictor variable on the response to MDMA”. In addition, the “Dread of ego dissolution and impaired control and cognition (5D-ASC) in subjects with higher neuroticism (NEO-FFI) and trait anxiety (STAI-T)” value in data set [3] (dose-adjusted (FIG. 2), both p<0.01 and both p<0.05) was “more likely to experience “dread of ego dissolution” and “impaired control and cognition””. Also, in data set [3] (dose-adjusted (FIG. 2), p<0.05, p<0.05, p<0.01), the “Closeness (VAS), oceanic boundlessness and visionary restructuralization (5D-ASC), relation to openness to experience (NEO-FFI)” value is “positively correlated”. The “Effect of past use of MDMA on response” value in data set [3] (past use within the range of 0-5 times (FIG. 2 and FIG. 3)) was “no significant effect on the response to MDMA”. Besides, the “Good drug effect / positive effects, relation to dose” value in data set [3] (within range of doses tested (75 and 125 mg)) was “a high dose of MDMA (>75 mg) is needed to produce greater positive effects”. The “Intensity of response at high dose of MDMA per body weight” value in data set [3] (within the 75-125 mg absolute dose range (FIG. 1)) was “more intense response to MDMA with more positive and more cardiostimulant effects”. In addition, in data set [4] (adjusted for dose per body weight (FIG. 2), p<0.01), the “MDMA plasma concentration, relation to genetically determined CYP2D6 activity” value was “still inversely correlated with the MDMA plasma concentration”. Also, the “MDMA concentrations and response in subjects with poor CYP2D6 activity” value in data set [4] (poor vs extensive CYP2D6 metabolizers (FIGS. 1 and 2)) is “higher MDMA concentrations and a stronger MDMA response compared with CYP2D6 extensive metabolizers”. For the same molecule, the “MDMA plasma AUC over 6 hours, women vs men” value in data set [4] (similar total doses, not accounting for body weight) is “women exhibit significantly higher MDMA plasma AUC than men”.
